Holding throughout (type): in vivo
Test [1] concerns Echinochloa crus-galli (ECHCG). Nature of the test: Post-emergence biological efficacy, glasshouse pot test. The conditions noted are these: 312 h, 1,000 g/ha, evaluated after 13 days, 100=total damage, 0=no damage, read-out: Percentage damage caused to weed species, post-emergence, ECHCG. A digest of the protocol: (§1)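 Weeds grown 8 days in glasshouse pots (24/16 °C, 14 h light, 65% humidity) were sprayed with compound in acetone/water plus 0.5% Tween 20 at 1000 or 250 g/ha. Damage was scored 13 days later on a 0–100 scale (100 = total damage).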

The test system of test [2] is Setaria faberi (SETFA). Described as above. The conditions noted are these: 312 h, 1,000 g/ha, evaluated after 13 days, 100=total damage, 0=no damage, read-out: Percentage damage caused to weed species, post-emergence, SETFA. Summed up: as §1
The subject of test [3] is Alopecurus myosuroides (ALOMY). Described as above. The conditions noted are these: 312 h, 1,000 g/ha, evaluated after 13 days, 100=total damage, 0=no damage, read-out: Percentage damage caused to weed species, post-emergence, ALOMY. Summed up:
as §1

The subject of test [4] is Amaranthus retroflexus (AMARE). Described as above. To be noted: 312 h, 1,000 g/ha, evaluated after 13 days, 100=total damage, 0=no damage, read-out: Percentage damage caused to weed species, post-emergence, AMARE. Summed up: as §1
The subject of test [5] is Ipomea hederaceae (IPOHE). The test is described as above. To be noted: Ipomoea hederacea, 312 h, 1,000 g/ha, evaluated after 13 days, 100=total damage, 0=no damage, read-out: Percentage damage caused to weed species, post-emergence, IPOHE. A digest of the protocol:
as §1

For test [6], the system named is Solanum nigrum (SOLNI). The test is described as above. The conditions noted are these: 312 h, 1,000 g/ha, evaluated after 13 days, 100=total damage, 0=no damage, read-out: Percentage damage caused to weed species, post-emergence, SOLNI. Summed up:
as §1

Test [7] concerns Echinochloa crus-galli (ECHCG). Put plainly: Pre-emergence biological efficacy, glasshouse pot test. To be noted: 312 h, 1,000 g/ha, evaluated after 13 days, 100=total damage, 0=no damage, read-out: Percentage damage caused to weed species, pre-emergence, ECHCG. Summed up:
(§2)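 Visual 0–100 injury scale read 13 days post-spray. Dose 1000 or 250 g/ha, applied to soil one day after sowing, before emergence.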

Test [8] concerns Setaria faberi (SETFA). The test is described as above. The conditions noted are these: 312 h, 1,000 g/ha, evaluated after 13 days, 100=total damage, 0=no damage, read-out: Percentage damage caused to weed species, pre-emergence, SETFA. Summed up:
as §2

For test [9], the system named is Alopecurus myosuroides (ALOMY). The test is described as above. The conditions noted are these: 312 h, 1,000 g/ha, evaluated after 13 days, 100=total damage, 0=no damage, read-out: Percentage damage caused to weed species, pre-emergence, ALOMY. Summed up: as §2
Test [10] concerns Amaranthus retroflexus (AMARE). The test is described as above. The conditions noted are these: 312 h, 1,000 g/ha, evaluated after 13 days, 100=total damage, 0=no damage, read-out: Percentage damage caused to weed species, pre-emergence, AMARE. Summed up:
as §2

The subject of test [11] is Ipomea hederaceae (IPOHE). Described as above. The conditions noted are these: Ipomoea hederacea, 312 h, 1,000 g/ha, evaluated after 13 days, 100=total damage, 0=no damage, read-out: Percentage damage caused to weed species, pre-emergence, IPOHE. Summed up:
as §2

Test [12] relates to Solanum nigrum (SOLNI). Described as above. The conditions noted are these: 312 h, 1,000 g/ha, evaluated after 13 days, 100=total damage, 0=no damage, read-out: Percentage damage caused to weed species, pre-emergence, SOLNI. Summed up: as §2

With `C=Cc1c(NCc2ccc(N(C)C)cc2)cc(Cl)nc1C(=O)OC` [Compound 14-12, 6-Chloro-4-[(4-dimethylamino-phenylmethyl)-amino]-3-ethenyl-pyridine-2-carboxylic acid methyl ester], the pest or weed control at 1000 g/ha in test [1] was 50%; in [2], 80%; in test [3], 60%; in test [4], 100%; in test [5], 50%; in test [6], 90%. Besides, the pest or weed control at 1000 g/ha is 30% in [7]; 80% in [8]; 80% in test [9]; 100% in test [10]; 100% in test [11]; 100% in test [12].
As for `C=Cc1c(NCc2ccccc2)cc(Cl)nc1C(=O)OC` [Compound 2-12, 6-Chloro-3-ethenyl-4-phenylmethyl-amino-pyridine-2-carboxylic acid methyl ester], the pest or weed control at 1000 g/ha in [1] is 50%; in [2] it was 80%; in test [3], 60%; in test [4] it was 100%; in [5] it was 70%; in test [6], 100%. Further, the pest or weed control at 1000 g/ha was found to be 30% in [7]; 80% in test [8]; 80% in test [9]; 100% in test [10]; 80% in test [11]; 100% in [12].
Regarding `COC(=O)c1nc(Cl)cc(NCc2ccc3c(c2)OCO3)c1Cl` [Compound 24-2, 3,6-Dichloro-4-[(3,4-methylenedioxy-phenylmethyl)-amino]-pyridine-2-carboxylic acid methyl ester], the pest or weed control at 1000 g/ha stood at 20% in test [1]; 80% in [2]; 50% in [3]; 100% in test [4]; 70% in test [5]; 100% in test [6]. In addition, the pest or weed control at 1000 g/ha was 0% in test [7]; 70% in [8]; 10% in test [9]; 100% in test [10]; 80% in test [11]; 100% in [12].
With `COC(=O)c1nc(Cl)cc(NCc2ccccc2F)c1Cl` [Compound 6-2, 3,6-Dichloro-4-[(2-fluorophenylmethyl)-amino]-pyridine-2-carboxylic acid methyl ester], the pest or weed control at 1000 g/ha turned out to be 40% in [1]; 90% in [2]; 60% in test [3]; 100% in test [4]; 70% in test [5]; 100% in test [6]. The pest or weed control at 1000 g/ha in test [7] worked out at 60%; in test [8], 80%; in test [9], 70%; in test [10], 100%; in test [11] it was 90%; in test [12], 100%.
For the molecule `COC(=O)c1nc(Cl)cc(NCC2CCCO2)c1Cl` (stereo not drawn) [Compound 70-2, 3,6-Dichloro-4-(tetrahydrofuran-2-ylmethylamino)-pyridine-2-carboxylic acid methyl ester], the pest or weed control at 1000 g/ha in test [1] worked out at 30%; in test [2], 60%; in test [3] it was 40%; in test [4], 100%; in test [5], 70%; in test [6], 100%. For the same molecule, the pest or weed control at 1000 g/ha came out at 20% in test [7]; 80% in test [8]; 30% in [9]; 100% in test [10]; 70% in test [11]; 100% in test [12].
Take `COC(=O)c1nc(Cl)cc(NCc2ncccc2C)c1Cl` [Compound 33-2, 3,6-Dichloro-4-[(3-methyl-pyridin-2-ylmethyl)-amino] pyridine-2-carboxylic acid methyl ester]: the pest or weed control at 1000 g/ha came to 60% in test [1]; 70% in test [2]; 60% in [3]; 100% in test [4]; 80% in test [5]; 100% in test [6]. The pest or weed control at 1000 g/ha in [7] amounted to 50%; in [8], 80%; in test [9], 60%; in test [10] it was 100%; in [11], 100%; in test [12] it was 100%.
As to `C=Cc1c(NCc2ccccc2C(F)(F)F)cc(Cl)nc1C(=O)OC` [Compound 74-12, 6-Chloro-3-ethenyl-4-[(2-trifluoromethyl-phenylmethyl)-amino]-pyridine-2-carboxylic acid methyl ester], the pest or weed control at 1000 g/ha in test [1] came to 20%; in [2], 10%; in test [3] it was 10%; in test [4], 100%; in test [5], 10%; in test [6], 70%. In addition, the pest or weed control at 1000 g/ha in test [7], in test [8], in test [9], in test [10], in test [11] and in [12] was 0% each time.
Regarding `COC(=O)c1nc(Cl)cc(NCc2ccccc2[N+](=O)[O-])c1Br` [Compound 15-17, 3-Bromo-6-chloro-4-[(2-nitrophenylmethyl)-amino]-pyridine-2-carboxylic acid methyl ester], the pest or weed control at 1000 g/ha in test [1] amounted to 30%; in test [2], 80%; in test [3] it was 50%; in test [4] it was 80%; in test [5] it was 80%; in test [6], 90%. Besides, the pest or weed control at 1000 g/ha amounted to 20% in test [7]; 60% in [8]; 40% in test [9]; 100% in test [10]; 90% in test [11]; 90% in [12].
Take `C=Cc1c(NCc2ccco2)cc(Cl)nc1C(=O)OC` [Compound 26-12, 6-Chloro-3-ethenyl-4-[(furan-2-ylmethyl)-amino]-pyridine-2-carboxylic acid methyl ester]: the pest or weed control at 1000 g/ha was 80% in test [1]; 90% in test [2]; 80% in test [3]; 100% in [4]; 70% in [5]; 100% in [6]. The pest or weed control at 1000 g/ha in [7] was determined as 90%; in test [8], 100%; in [9], 90%; in test [10], 100%; in test [11] it was 90%; in test [12], 100%.

These data come from patent publication US20120100990A1, “4 -AMINOPICOLINATES AND THEIR USE AS HERBICIDES” (SYNGENTA CROP PROTECTION LLC, priority 2009, published 2012).
